The values below come from US20160039825A1 (BIOGEN MA INC., priority 2013, published 2016).

Structures are written as SMILES. Where a name gives a salt, the structure may show the parent alone.

The target in one assay is T1, Human ATX protein (Homo sapiens, UniProt Q13822).
T1 construct: made in house
The experiment in a line: Autotaxin (ATX) assay, FRET with FS-3 substrate. Particulars: 10 uM compound. It counts as biochemical. An outline of the steps:
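In-house human ATX (1.0 μg/mL final) was preincubated with compound for 30 min at room temperature in Tris buffer pH 7.4 with NaCl, KCl, CaCl2, MgCl2 and 1 mg/mL fatty acid-free BSA. FS-3 (2 μM final) was added and the plate shaken 2 h at room temperature in the dark. Fluorescence was read at ex 485/em 538 nm.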
Turning to `O=C(OCc1cc(C(F)(F)F)cc(C(F)(F)F)c1)N1CCn2nc(Br)cc2C1` [Example 407], 10 µM produced 50% inhibition.

The same assay, now with this note: greater than 10 μM.
Take `CCOC(=O)C1CN(C(=O)OCc2cc(C(F)(F)F)cc(C(F)(F)F)c2)Cc2ccnn21` (centres unmarked) [Example 405]: the IC50 – broadly, the concentration that gives 50% inhibition – was greater than 10000 nM. Still for that read-out and setting: the result for `COC(=O)C1CN(C(=O)OCc2cc(C(F)(F)F)cc(C(F)(F)F)c2)Cc2ccnn2C1` (centres unmarked) [Example 406] reads greater than 10000 nM.

The assay is the same for the next values; noted with them: upper bound bins (no greater than 100, 250 or 500 nM); FS-3 2 μM, ATX 1.0 μg/mL.
Consider `O=C(OCc1cc(C(F)(F)F)cc(C(F)(F)F)c1)N1CCCn2nc(C3CCCNC3)cc2C1` (centres unmarked) [Example 380], for which the IC50 was no more than 100 nM. Molecule `CN1C2CCC1CC(c1cc3n(n1)CCCN(C(=O)OCc1cc(C(F)(F)F)cc(C(F)(F)F)c1)C3)C2` (centres unmarked) [Example 381] displayed an IC50 of no more than 100 nM. The same measure, in the same setting: the result for `CC1CC(c2cc3n(n2)CCCN(C(=O)OCc2cc(C(F)(F)F)cc(C(F)(F)F)c2)C3)CC(C)N1` (centres unmarked) [Example 382] reads no more than 100 nM; that for `CC(C)(C)OC(=O)N1CCC(c2cc3n(n2)CCCN(C(=O)OCc2cc(C(F)(F)F)cc(C(F)(F)F)c2)C3)C1` (centres unmarked) [Example 383], no more than 100 nM. `O=C(OCc1cc(C(F)(F)F)cc(C(F)(F)F)c1)N1CCCn2nc(C3CCNC3)cc2C1` (centres unmarked) [Example 384] came in with a concentration for half-maximal inhibition (IC50) of no more than 250 nM.

Molecule `CN1CCC(c2cc3n(n2)CCCN(C(=O)OCc2cc(C(F)(F)F)cc(C(F)(F)F)c2)C3)C1` (centres unmarked) [Example 385] came in with an IC50 of no more than 250 nM. The same measure, in the same setting: next, `O=C(O)Cc1cc2n(n1)CCCN(C(=O)OCc1cc(C(F)(F)F)cc(C(F)(F)F)c1)C2` [Example 386, 2-(5-(((3,5-bis(Trifluoromethyl)benzyl)oxy)carbonyl)-5,6,7,8-tetrahydro-4H-pyrazolo[1,5-a][1,4]diazepin-2-yl)acetic acid]: no more than 100 nM. The same measure, in the same setting: next, `CC(C(=O)O)c1cc2n(n1)CCCN(C(=O)OCc1cc(C(F)(F)F)cc(C(F)(F)F)c1)C2` (centres unmarked) [Example 387, 2-(5-(((3,5-bis(Trifluoromethyl)benzyl)oxy)carbonyl)-5,6,7,8-tetrahydro-4H-pyrazolo[1,5-a][1,4]diazepin-2-yl)propanoic acid]: no more than 100 nM; `CC(C)(C(=O)O)c1cc2n(n1)CCCN(C(=O)OCc1cc(C(F)(F)F)cc(C(F)(F)F)c1)C2` [Example 388]: no more than 100 nM. The molecule `NC(C(=O)O)c1cc2n(n1)CCCN(C(=O)OCc1cc(C(F)(F)F)cc(C(F)(F)F)c1)C2` (centres unmarked) [Example 390, 2-Amino-2-(5-(((3,5-bis(trifluoromethyl)benzyl)oxy)carbonyl)-5,6,7,8-tetrahydro-4H-pyrazolo[1,5-a][1,4]diazepin-2-yl)acetic acid] gave an IC50 of no more than 100 nM. With `Cc1nc(-c2cc3n(n2)CCCN(C(=O)OCc2cc(C(F)(F)F)cc(C(F)(F)F)c2)C3)no1` [Example 392, 3,5-bis(Trifluoromethyl)benzyl 2-(5-methyl-1,2,4-oxadiazol-3-yl)-7,8-dihydro-4H-pyrazolo[1,5-a][1,4]diazepine-5(6H)-carboxylate], the half-inhibitory concentration (IC50) was no more than 100 nM.

Molecule `CN1CCN(c2cc3n(n2)CCN(C(=O)OCc2cc(C(F)(F)F)cc(C(F)(F)F)c2)C3)CC1` [Example 393, 3,5-bis(Trifluoromethyl)benzyl 2-(4-methylpiperazin-1-yl)-6,7-dihydropyrazolo[1,5-a]pyrazine-5(4H)-carboxylate] yielded a half-inhibitory concentration (IC50) of no more than 100 nM.

In the case of `O=C(OCc1cc(C(F)(F)F)cc(C(F)(F)F)c1)N1CCn2nc(N3CCNCC3)cc2C1` [Example 394, 3,5-bis(trifluoromethyl)benzyl 2-(piperazin-1-yl)-6,7-dihydropyrazolo[1,5-a]pyrazine-5(4H)-carboxylate], the half-inhibitory concentration (IC50) was no more than 100 nM. Still for that read-out and setting: next, `CC(N)c1cc2n(n1)CCN(C(=O)OCc1cc(C(F)(F)F)cc(C(F)(F)F)c1)C2` (centres unmarked) [Example 395, 3,5-bis(Trifluoromethyl)benzyl 2-(1-aminoethyl)-6,7-dihydropyrazolo[1,5-a]pyrazine-5(4H)-carboxylate]: no more than 100 nM; `CC(O)c1cc2n(n1)CCN(C(=O)OCc1cc(C(F)(F)F)cc(C(F)(F)F)c1)C2` (centres unmarked) [Example 396, 3,5-bis(Trifluoromethyl)benzyl 2-(1-hydroxyethyl)-6,7-dihydropyrazolo[1,5-a]pyrazine-5(4H)-carboxylate]: no more than 100 nM; `CC(C)(C)OC(=O)N1CCC(c2cc3n(n2)CCN(C(=O)OCc2cc(C(F)(F)F)cc(C(F)(F)F)c2)C3)CC1` [Example 398, 3,5-bis(trifluoromethyl)benzyl 2-(1-(tert-butoxycarbonyl)piperidin-4-yl)-6,7-dihydropyrazolo[1,5-a]pyrazine-5(4H)-carboxylate]: no more than 100 nM.

`O=C(O)c1nn2c(c1F)CN(C(=O)OCc1cc(Cl)cc(C(F)(F)F)c1)CCC2` [Example 399, 5-(((3-chloro-5-(trifluoromethyl)benzyl)oxy)carbonyl)-3-fluoro-5,6,7,8-tetrahydro-4H-pyrazolo[1,5-a][1,4]diazepine-2-carboxylic acid] displayed an IC50 of no more than 100 nM. Same read-out and setting: next, `CON(C)C(=O)c1cc2n(n1)CCN(C(=O)OCc1cc(C(F)(F)F)cc(C(F)(F)F)c1)C2` [Example 400, 3,5-bis(trifluoromethyl)benzyl 2-(methoxy(methyl)carbamoyl)-6,7-dihydropyrazolo[1,5-a]pyrazine-5(4H)-carboxylate]: no more than 100 nM.

Consider `CC(=O)c1cc2n(n1)CCN(C(=O)OCc1cc(C(F)(F)F)cc(C(F)(F)F)c1)C2` [Example 401, 3,5-bis(trifluoromethyl)benzyl 2-acetyl-6,7-dihydropyrazolo[1,5-a]pyrazine-5(4H)-carboxylate], for which the IC50 was no more than 500 nM. Still for that read-out and setting: next, `CCOC(=O)c1cc2n(n1)CCN(C(=O)OCc1cc(Cl)cc(C(F)(F)F)c1)C2` [Example 402, 5-(3-chloro-5-(trifluoromethyl)benzyl) 2-ethyl 6,7-dihydropyrazolo[1,5-a]pyrazine-2,5(4H)-dicarboxylate]: no more than 100 nM; `CCOC(=O)c1cc2n(n1)CCN(C(=O)OCc1cc(C(F)(F)F)cc(C(F)(F)F)c1)C2` [Example 403]: no more than 100 nM.

In the case of `CCOC(=O)c1cc2n(n1)CCCN(C(=O)OCc1cc(Cl)cc(C(F)(F)F)c1)C2` [Example 404], the IC50 was no more than 100 nM. The same measure, in the same setting: next, `CCOC(=O)c1cc2n(n1)CC(O)CN(C(=O)OCc1cc(C(F)(F)F)cc(C(F)(F)F)c1)C2` (centres unmarked) [Example 409]: no more than 100 nM. On the same count and under the same terms, next, `O=C(O)c1cc2n(n1)CCN(C(=O)OCc1cc(Cl)cc(C(F)(F)F)c1)C2` [Example 410, 5-(((3-chloro-5-(trifluoromethyl)benzyl)oxy)carbonyl)-4,5,6,7-tetrahydropyrazolo[1,5-a]pyrazine-2-carboxylic acid]: no more than 250 nM; `O=C(O)Cn1cc(-c2cc3n(n2)CCCN(C(=O)OCc2cc(C(F)(F)F)cc(C(F)(F)F)c2)C3)cn1` [Example 412]: no more than 100 nM. On to `O=C(O)C1CN(C(=O)OCc2cc(C(F)(F)F)cc(C(F)(F)F)c2)Cc2ccnn2C1` (centres unmarked) [Example 415], for which the 50% inhibitory concentration (IC50) was no more than 250 nM. The same measure, in the same setting: next, `O=C(O)C1CCN(C(=O)c2cc3n(n2)CCN(C(=O)OCc2cc(C(F)(F)F)cc(C(F)(F)F)c2)C3)CC1` [Example 418]: no more than 100 nM; `O=C(O)c1cc2n(n1)CCN(C(=O)OCc1cc(C(F)(F)F)cc(C(F)(F)F)c1)C2` [Example 419]: no more than 250 nM. Same read-out and setting: next, `CC1c2cc(C(=O)O)nn2CCCN1C(=O)CCc1cc(Cl)cc(Cl)c1` (centres unmarked) [Example 420]: no more than 500 nM. Consider `O=C(O)c1cc2n(n1)CC(O)CN(C(=O)OCc1cc(C(F)(F)F)cc(C(F)(F)F)c1)C2` (centres unmarked) [Example 421], for which the IC50 is no more than 500 nM. On the same count and under the same terms, the result for `NC1CCN(C(=O)c2cc3n(n2)CCN(C(=O)OCc2cc(C(F)(F)F)cc(C(F)(F)F)c2)C3)CC1` [Example 422, 3,5-bis(trifluoromethyl)benzyl 2-(4-aminopiperidine-1-carbonyl)-6,7-dihydropyrazolo[1,5-a]pyrazine-5(4H)-carboxylate hydrochloride] reads no more than 100 nM. Molecule `CC1CNCCN1C(=O)c1cc2n(n1)CCN(C(=O)OCc1cc(C(F)(F)F)cc(C(F)(F)F)c1)C2` (centres unmarked) [Example 423] came in with a half-maximal inhibitory concentration (IC50) of no more than 100 nM.

Turning to `NC1CN(C(=O)c2cc3n(n2)CCN(C(=O)OCc2cc(C(F)(F)F)cc(C(F)(F)F)c2)C3)C1` [Example 424], the half-maximal inhibitory concentration (IC50) was no more than 100 nM. The same measure, in the same setting: next, `NCCNC(=O)c1cc2n(n1)CCN(C(=O)OCc1cc(C(F)(F)F)cc(C(F)(F)F)c1)C2` [Example 425]: no more than 100 nM.

With `O=C(OCc1cc(C(F)(F)F)cc(C(F)(F)F)c1)N1CCn2nc(C(=O)N3C4CCC3CNC4)cc2C1` [Example 426], the IC50 is no more than 100 nM.

`CC(c1cc2n(n1)CCN(C(=O)OCc1cc(C(F)(F)F)cc(C(F)(F)F)c1)C2)N1CC2CCC(C1)N2` (centres unmarked) [Example 427]: the IC50 was no more than 100 nM. Same read-out and setting: the result for `CC(c1cc2n(n1)CCN(C(=O)OCc1cc(C(F)(F)F)cc(C(F)(F)F)c1)C2)N1C2CCC1CNC2` (centres unmarked) [Example 428] reads no more than 100 nM; that for `O=C(OCc1cc(Cl)cc(C(F)(F)F)c1)N1CCn2nc(C(=O)N3CC4CCC(C3)N4)cc2C1` [Example 429], no more than 100 nM. Still for that read-out and setting: the result for `CC1CNCC(C)N1C(=O)c1cc2n(n1)CCN(C(=O)OCc1cc(C(F)(F)F)cc(C(F)(F)F)c1)C2` (centres unmarked) [Example 430] reads no more than 100 nM; that for `NC1CN(C(=O)c2cc3n(n2)CCN(C(=O)OCc2cc(Cl)cc(C(F)(F)F)c2)C3)C1` [Example 431], no more than 100 nM; that for `CC1(C)CNCCN1C(=O)c1cc2n(n1)CCN(C(=O)OCc1cc(Cl)cc(C(F)(F)F)c1)C2` [Example 432], no more than 100 nM. Same read-out and setting: the result for `CC1CN(C(=O)c2cc3n(n2)CCN(C(=O)OCc2cc(C(F)(F)F)cc(C(F)(F)F)c2)C3)CC(C)N1` (centres unmarked) [Example 433] reads no more than 100 nM; that for `O=C(OCc1cc(Cl)cc(C(F)(F)F)c1)N1CCn2nc(C(=O)N3CCNCC3)cc2C1` [Example 434], no more than 100 nM; that for `O=C(OCc1cc(C(F)(F)F)cc(C(F)(F)F)c1)N1CCn2nc(C(=O)N3CCNCC3)cc2C1` [Example 435], no more than 100 nM.
